Assay type in all cases: cell-based
The target in one experiment is T1, PPARγ (Homo sapiens, UniProt P37231).
T1 construct: hPPARγ (281aa-554aa); expressed in transfected cells; host or cells: Cos-7
T1 sequence (P37231 232-505 limits assumed): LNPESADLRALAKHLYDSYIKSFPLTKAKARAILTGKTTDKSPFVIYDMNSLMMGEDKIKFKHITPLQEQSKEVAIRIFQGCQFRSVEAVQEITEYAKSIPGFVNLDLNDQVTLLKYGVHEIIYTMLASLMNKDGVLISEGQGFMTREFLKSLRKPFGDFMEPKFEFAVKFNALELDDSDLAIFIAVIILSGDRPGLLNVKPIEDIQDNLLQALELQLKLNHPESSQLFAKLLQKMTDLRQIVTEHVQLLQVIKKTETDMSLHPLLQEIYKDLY
Put plainly: Gal4-PPARγ(LBD) reporter gene agonistic activity assay in Cos-7 cells. How it is done:
(§1) Cos-7 cells (African green monkey kidney fibroblasts, commonly used tool cells) were cultured in a 10 cm cell culture dish in a DMEM complete medium containing 10% fetal bovine serum. When the cells grew to a density of about 70%, the medium was replaced with a fresh medium for later transfection. […] The plasmid working solution was then added to the cell culture dish for cell transfection. […] Test compounds were prepared into appropriate test concentrations with a complete medium and then added to the 96-well plate. […] 10 μL of lysate was pipetted into a white opaque 384-well plate, and then 10 μL of reporter gene assay buffer (purchased from Shanghai Beyotime Biological Tech. Co., Ltd.) was added. The bioluminescence was detected by using a multimode microplate reader, and the corresponding half maximal effective concentration (EC50) value was calculated according to the detection value.

Another experiment concerns the target T2, PPARα (Homo sapiens, UniProt Q07869).
T2 construct: hPPARα (279aa-580aa); expressed in transfected cells; host or cells: Cos-7
T2 sequence (Q07869 167-468 limits assumed): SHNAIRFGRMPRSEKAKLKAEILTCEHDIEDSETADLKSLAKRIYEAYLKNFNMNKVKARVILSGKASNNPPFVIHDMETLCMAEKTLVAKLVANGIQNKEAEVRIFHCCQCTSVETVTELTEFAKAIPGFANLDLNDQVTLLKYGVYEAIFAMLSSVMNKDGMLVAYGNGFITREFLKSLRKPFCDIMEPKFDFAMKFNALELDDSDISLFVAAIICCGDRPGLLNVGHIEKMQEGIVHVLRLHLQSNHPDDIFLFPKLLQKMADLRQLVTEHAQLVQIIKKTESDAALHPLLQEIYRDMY
Put plainly: Gal4-PPARα(LBD) reporter gene agonistic activity assay in Cos-7 cells. Conditions: for EC50: Cos-7 cells, Gal4-PPARα(LBD) reporter, 16 h, 100% = GW7647 10 nM; for agonistic activity for PPARα (EC50 level, in words): Cos-7 reporter assay. How it is done:
as §1
Background: Reporter assays use an easily measured gene product as a stand-in for the process of interest.

Another experiment concerns the target T3, PPARδ (Homo sapiens, UniProt Q03181).
T3 construct: expressed in transfected cells; host or cells: Cos-7
T3 sequence (Q03181 139-441 limits assumed): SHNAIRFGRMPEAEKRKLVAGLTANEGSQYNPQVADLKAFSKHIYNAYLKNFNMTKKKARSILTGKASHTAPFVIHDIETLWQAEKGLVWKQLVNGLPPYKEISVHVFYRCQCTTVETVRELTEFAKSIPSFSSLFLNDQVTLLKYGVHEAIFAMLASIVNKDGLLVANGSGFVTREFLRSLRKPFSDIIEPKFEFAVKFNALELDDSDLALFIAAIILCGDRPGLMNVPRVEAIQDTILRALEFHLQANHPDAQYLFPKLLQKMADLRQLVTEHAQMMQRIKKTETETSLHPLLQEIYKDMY
In words: Gal4-PPARδ(LBD) reporter gene agonistic activity assay in Cos-7 cells. Conditions: for agonistic activity for PPARδ (EC50 level, in words): Cos-7 reporter assay. The procedure: as §1

[1] abbreviates: Cos-7 cells, Gal4-PPARδ(LBD) reporter, 16 h, 100% = GW501516 10 nM.
Setting [2] is: Cos-7 cells, Gal4-PPARγ(LBD) reporter, 16 h, 100% = Rosiglitazone 1 μM.

Consider 20 molecules from US20250188044A1 (HARBIN MEDISAN PHARMACEUTICAL CO., LTD., priority 2021, published 2025).

Structures are written as SMILES. Like-named read-outs stand apart in the source and are kept apart here.

Usually EC50 stands for the concentration at which the effect is half-maximal. Low readings indicate higher potency in that assay, high ones lower potency in that assay. Take `Cc1cc(Cn2ncn(-c3ccccc3)c2=O)cc(C)c1OC(C)(C)C(=O)O` [Compound 63, 2-(2,6-Dimethyl-4-((5-oxo-4-phenyl-4,5-dihydro-1H-1,2,4-triazol-1-yl)methyl)phenoxy)-2-methylpropionic acid]: the EC50 on PPARγ came out at 8650 nM; on PPARα, 1030 nM.

As for `CCOc1ccc(-n2cnn(Cc3cc(C)c(OC(C)(C)C(=O)O)c(C)c3)c2=O)cc1` [Compound 69, 2-(4-((4-(4-Ethoxyphenyl)-5-oxo-4,5-dihydro-1H-1,2,4-triazol-1-yl)methyl)-2,6-dimethylphenoxy)-2-methylpropionic acid], the figures for the EC50 at PPARδ (setting [1]) and on PPARα were 481 nM and 33 nM, respectively.

As to `Cc1cc(Cn2ncn(-c3ccc(C(F)(F)F)cc3)c2=O)ccc1OC(C)(C)C(=O)O` [Compound 77, 2-Methyl-2-(2-methyl-4-((5-oxo-4-(4-(trifluoromethyl)phenyl)-4,5-dihydro-1H-1,2,4-triazol-1-yl)methyl)phenoxy)propionic acid], the 50% effective concentration (EC50) at PPARδ (setting [1]) came out at 132 nM; on PPARα, 103 nM.

With `Cc1cc(Cn2ncn(-c3ccc(F)cc3)c2=O)cc(C)c1OC(C)(C)C(=O)O` [Compound 109, 2-(4-((4-(4-Fluorophenyl)-5-oxo-4,5-dihydro-1H-1,2,4-triazol-1-yl)methyl)-2,6-dimethylphenoxy)-2-methylpropionic acid], the EC50 on PPARδ (setting [1]) was determined as 389 nM; on PPARα it was 645 nM.

In turn, `Cc1cc(Cn2ncn(-c3ccc(-c4ccccc4)cc3)c2=O)cc(C)c1OC(C)(C)C(=O)O` [Compound 117, 2-(4-((4-([1,1′-Biphenyl]-4-yl)-5-oxo-4,5-dihydro-1H-1,2,4-triazol-1-yl)methyl)-2,6-dimethylphenoxy)-2-methylpropionic acid] showed an EC50 on PPARδ (setting [1]) of 135 nM.

With `Cc1cc(Cn2ncn(-c3cccc(C(F)(F)F)c3)c2=O)cc(C)c1OC(C)(C)C(=O)O` [Compound 121, 2-(2,6-Dimethyl-4-((5-oxo-4-(3-(trifluoromethyl)phenyl)-4,5-dihydro-1H-1,2,4-triazol-1-yl)methyl)phenoxy)-2-methylpropionic acid], the midpoint of the response on PPARδ (setting [1]), the EC50, lay at 39 nM. Compared with the last molecule, the EC50 is about 3.5-fold lower.

As for `CC(C)(Oc1ccc(Cn2ncn(-c3ccc(C(F)(F)F)cc3)c2=O)cc1F)C(=O)O` [Compound 123, 2-(2-Fluoro-4-((5-oxo-4-(4-(trifluoromethyl)phenyl)-4,5-dihydro-1H-1,2,4-triazol-1-yl)methyl)phenoxy)-2-methylpropionic acid], the EC50 was 664 nM on PPARδ (setting [1]) and 394 nM on PPARα.

At PPARδ (setting [1]), `CC(C)(Oc1c(F)cc(Cn2ncn(-c3ccc(C(F)(F)F)cc3)c2=O)cc1F)C(=O)O` [Compound 127, 2-(2,6-Difluoro-4-((5-oxo-4-(4-(trifluoromethyl)phenyl)-4,5-dihydro-1H-1,2,4-triazol-1-yl)methyl)phenoxy)-2-methylpropionic acid] showed an EC50 of 586 nM.

As to `CC(C)(Oc1ccc(Cn2ncn(-c3ccc(C(F)(F)F)cc3)c2=O)cc1)C(=O)O` [Compound 137, 2-(4-((4-(4-Trifluoromethylphenyl)-5-oxo-4,5-dihydro-1H-1,2,4-triazol-1-yl)methyl)phenoxy)-2-methylpropionic acid], the 50% effective concentration (EC50) on PPARδ (setting [1]) was 1520 nM.

With `Cc1cc(Cn2ncn(-c3ccc(OC(F)(F)F)cc3)c2=O)cc(Cl)c1OC(C)(C)C(=O)O` [Compound 145, 2-(2-Chloro-6-methyl-4-((5-oxo-4-(4-(trifluoromethoxy)phenyl)-4,5-dihydro-1H-1,2,4-triazol-1-yl)methyl)phenoxy)-2-methylpropionic acid], on PPARδ, a half-maximal effect (EC50) was put at 29 nM and the “agonistic activity for PPARδ (EC50 level, in words)” value (shortened to “agonistic activity for PPARδ”) is on record as “at nanomolar levels”. Also, at PPARα, the EC50 stood at 8 nM and the “agonistic activity for PPARα (EC50 level, in words)” value (“agonistic activity for PPARα” below) is given as “at nanomolar levels”.

Consider `CC(C)(Oc1ccc(Cn2ncn(-c3ccc(C(F)(F)F)cc3)c2=O)cc1C(F)(F)F)C(=O)O` [Compound 147], for which the EC50 at PPARγ (setting [2]) is 1800 nM; on PPARδ (setting [1]), 81 nM.

`CC(C)(Oc1c(Cl)cc(Cn2ncn(-c3ccc(OC(F)(F)F)cc3)c2=O)cc1Cl)C(=O)O` [Compound 149, 2-(2,6-Dichloro-4-((5-oxo-4-(4-(trifluoromethoxy)phenyl)-4,5-dihydro-1H-1,2,4-triazo 1-1-yl)methyl)phenoxy)-2-methylpropionic acid]: the EC50 was 225 nM at PPARδ (setting [1]) and 7 nM on PPARα.

On to `CC(C)(Oc1ccc(Cn2ncn(-c3ccc(OC(F)(F)F)cc3)c2=O)cc1F)C(=O)O` [Compound 151, 2-(2-Fluoro-4-((5-oxo-4-(4-(trifluoromethoxy)phenyl)-4,5-dihydro-1H-1,2,4-triazol-1-yl)methyl)phenoxy)-2-methylpropionic acid], for which the EC50 at PPARδ (setting [1]) turned out to be 914 nM; on PPARα, 220 nM.

`CC(C)(Oc1ccc(Cn2ncn(-c3ccc(OC(F)(F)F)cc3)c2=O)cc1)C(=O)O` [Compound 153, 2-Methyl-2-(4-((5-oxo-4-(4-(trifluoromethoxy)phenyl)-4,5-dihydro-1H-1,2,4-triazol-1-yl)methyl)phenoxy)propionic acid]: the results for the EC50 at PPARδ (setting [1]) and at PPARα were 1680 nM and 498 nM, respectively.

As to `CC(C)(Oc1c(F)cc(Cn2ncn(-c3ccc(OC(F)(F)F)cc3)c2=O)cc1F)C(=O)O` [Compound 155, 2-(2,6-Difluoro-4-((5-oxo-4-(4-(trifluoromethoxy)phenyl)-4,5-dihydro-1H-1,2,4-triazol-1-yl)methyl)phenoxy)-2-methylpropionic acid], the half-maximal effective concentration (EC50) on PPARδ (setting [1]) stood at 1370 nM; on PPARα, 351 nM.

`[2H]C([2H])(c1cc(C)c(OC(C)(C)C(=O)O)c(C)c1)n1ncn(-c2ccc(C(F)(F)F)cc2)c1=O` [Compound 187, 2-(2,6-Dimethyl-4-((5-oxo-4-(4-(trifluoromethyl)phenyl)-4,5-dihydro-1H-1,2,4-triazol-1-yl)methyl-d2)phenoxy)-2-methylpropionic acid]: on PPARδ, the EC50 worked out at 7 nM and the “agonistic activity for PPARδ” value is on record as “at nanomolar levels”. Moreover, at PPARα, the 50% effective concentration (EC50) worked out at 10 nM and the “agonistic activity for PPARα” value is “at nanomolar levels”.

`CCc1cc(Cn2ncn(-c3ccc(C(F)(F)F)cc3)c2=O)cc(CC)c1OC(C)(C)C(=O)O` [Compound 191, 2-(2,6-Diethyl-4-((5-oxo-4-(4-(trifluoromethyl)phenyl)-4,5-dihydro-1H-1,2,4-triazol-1-yl)methyl)phenoxy)-2-methylpropionic acid] had an EC50 at PPARδ (setting [1]) of 42 nM. On PPARδ, the “agonistic activity for PPARδ” value is listed as “at nanomolar levels”. Further, at PPARα, it took 44 nM to reach a half-maximal effect (EC50) and the “agonistic activity for PPARα” value is reported as “at nanomolar levels”.

As to `Cc1cc(CCn2ncn(-c3ccc(C(F)(F)F)cc3)c2=O)cc(C)c1OC(C)(C)C(=O)O` [Compound 194, 2-(2,6-Dimethyl-4-(2-(5-oxo-4-(4-(trifluoromethyl)phenyl)-4,5-dihydro-1H-1,2,4-triazol-1-yl)ethyl)phenoxy)-2-methylpropionic acid], the concentration for a half-maximal effect (EC50) at PPARγ (setting [2]) was 2020 nM; on PPARδ (setting [1]), 38 nM. Besides, on PPARδ, the “agonistic activity for PPARδ” value is listed as “at nanomolar levels”.

As to `Cc1cc(OCn2ncn(-c3ccc(C(F)(F)F)cc3)c2=O)cc(C)c1OC(C)(C)C(=O)O` [Compound 196, 2-(2,6-Dimethyl-4-((5-oxo-4-(4-(trifluoromethyl)phenyl)-4,5-dihydro-1H-1,2,4-triazol-1-yl)methoxy)phenoxy)-2-methylpropionic acid], the EC50 on PPARδ (setting [1]) was 56 nM; at PPARα, 86 nM.

`Cc1cc(CCCn2ncn(-c3ccc(C(F)(F)F)cc3)c2=O)cc(C)c1OC(C)(C)C(=O)O` [Compound 200, 2-(2,6-Dimethyl-4-(3-(5-oxo-4-(4-(trifluoromethyl)phenyl)-4,5-dihydro-1H-1,2,4-triazol-1-yl)propyl)phenoxy)-2-methylpropionic acid]: the concentration for a half-maximal effect (EC50) is 212 nM on PPARδ (setting [1]) and 134 nM on PPARα.
